Test results from patent US20180243387A1, “TECHNOLOGY FOR C[…] CELLS” (RIKEN, priority 2017, published 2018).

What was measured:
Format in all cases: cell-based, mice
naïve CD4SP T cells [1] = assay: Cell proliferation of naïve CD4SP T cells under anti-CD3/anti-CD28 stimulation (OD 450 nm); conditions: for effect of inhibiting cellular proliferation by cGAMP: FIG. 7A
Experimental: Wild type mice and STING-deficient mice were used. As acquired immune lymphocytes, T cells (in particular naïve CD4SP T cells) were used. Naïve CD4SP T cells were obtained as a CD4^+ CD25^− CD62L^+ fraction from murine spleen by sorting using FACSAria. As a STING ligand, cyclic [G(2′,5′)pA(3′,5′)p] (hereinafter, simply referred to as “cGAMP”) was used. cGAMP (manufactured by Invitrogen, Cat. No.: tlrl-nacga23-1) was used at a working concentration of 3 μg/mL, 10 μg/mL, or 30 μg/mL. The obtained T cells were stimulated with an anti-CD3 antibody (10 μg/mL) and an anti-CD28 antibody (10 μg/mL) in the presence or absence of cGAMP. […] The cells were treated for 48 hours and then the cell proliferation was measured by the optical density (OD 450 nm). The result was as illustrated in FIG. 1.
Moreover, the involvement of TBK1 in the function to inhibit cell proliferation by cGAMP was examined using TBK1 heterozygous mice and TBK1 knockout mice. The result was as illustrated in FIG. 6B.
(§1) Next, involvement of IRF3 and IRF7 in the effect of inhibiting cellular proliferation and the effect of increasing production of INF-α through STING were examined. Specifically, T cells from IRF3-deficient mice or IRF3/IRF7 double deficient mice (see Immunity, Vol. 13, 539-548, 2000; Nature, Vol. 434, 772-777, 2005) were stimulated by anti-CD3/CD28 antibodies in the presence or absence of cGAMP. 48 hours later, the proliferation of the cells and the production of INF-α were examined as described above. The results were as illustrated in FIGS. 7A and 7B.

naïve CD4SP T cells [2] = assay: Cell survival rate of naïve CD4SP T cells (apoptosis inducing effect); conditions: cGAMP 10 or 30 μg/mL, 15 hours, FIG. 2
[3] = test system: cell cycle-related factors in naïve CD4SP T cells; assay: Gene expression of cell cycle-related factors by quantitative PCR; conditions: anti-CD3/CD28 antibodies 24 hours, FIG. 3
Experimental: As described in (1) above, naïve CD4SP T cells were stimulated with anti-CD3/CD28 antibodies for 24 hours in the presence or absence of cGAMP. Subsequently, the gene expression of cell cycle-related factors was examined by quantitative PCR according to a conventional method. The result was as illustrated in FIG. 3.

[4] = test system: mTOR Complex 1 (mTORC1) signaling; assay: Phosphorylated level of signal molecules by western blotting; conditions: anti-CD3/CD28 antibodies 24 hours, FIG. 4
Experimental: As a signal molecule that is involved in the expression of cell proliferation-related genes, the activation level of mTOR Complex 1 (mTORC1) signaling was analyzed. Specifically, as described in (1) above, naïve CD4SP T cells were stimulated with anti-CD3/CD28 antibodies for 24 hours in the presence or absence of cGAMP. Subsequently, the phosphorylated level of indicated factors was evaluated with antibodies specific to the phosphorylated form by western blotting. As primary antibodies, the antibodies set forth in the following were used. The following primary antibodies were manufactured by Cell Signaling Technology, Inc. and the catalog numbers are indicated in the parentheses.
Anti-phospho-IRF3 (#4947)
Anti-phospho-STAT5 (#9351)
Anti-phospho-Jak3 (#5031)
Anti-phospho-STING (#13647)
As a second antibody, Goat anti-Rabbit IgG (H+L) Secondary Antibody, HRP from Thermo Fisher Scientific Inc. was used. Phosphorylated proteins were detected according to a manufacturer manual. The result was as illustrated in FIG. 4.

[5] = test system: lipid synthesis genes that are induced by the activation of mTORC1; assay: Expression levels of lipid synthesis genes by quantitative PCR; conditions: FIG. 5
Experimental: Moreover, the expression levels of lipid synthesis genes that are induced by the activation of mTORC1 were analyzed by quantitative PCR. The result was as illustrated in FIG. 5.

type I interferon INF-α = assay: Production of type I interferon INF-α in naïve CD4SP T cells by ELISA; conditions: for effect of increasing production of INF-α by cGAMP: 48 hours, FIG. 7B
Experimental: 1×10^5 naïve CD4SP T cells were stimulated for 48 hours on a plate on which an anti-CD3 antibody (10 μg/mL) and an anti-CD28 antibody (10 μg/mL) were immobilized. The cell supernatant was collected and the production of the type I interferon INF-α was examined by ELISA using an anti-INF-α antibody. In innate immune cells, type I interferons are produced by the activation of TBK1 and its downstream IRF3 and IRF7. Therefore, T cells from TBK1 heteromice (Tbk1+/−) and TBK1-deficient mice (Tbk1−/−) were used (see, J Exp Med, Vol. 199, 1641-1650, 2004). The result was as illustrated in FIG. 6A.
as §1

SMILES: Nc1nc2c(ncn2[C@@H]2O[C@@H]3COP(=O)(O)O[C@H]4[C@@H](O)[C@H](n5cnc6c(N)ncnc65)O[C@@H]4COP(=O)(O)O[C@@H]2[C@@H]3O)c(=O)[nH]1 [cGAMP, cyclic [G(2′,5′)pA(3′,5′)p]]
- effect of inhibiting cellular proliferation by cGAMP (naïve CD4SP T cells [1]; IRF3/IRF7 double deficient mice, 48 hours): largely decreased
- effect of inhibiting cellular proliferation by cGAMP (naïve CD4SP T cells [1]; IRF3 deficient mouse, 48 hours): partially decreased
- effect on the number of naïve CD4SP T cells (naïve CD4SP T cells [1]; STING-deficient mice (STING−/−), anti-CD3/anti-CD28 stimulation, 48 hours, FIG. 1): limited
- effect of Tbk1 knockout on inhibition of cell proliferation by cGAMP (naïve CD4SP T cells [1]; TBK1 knockout versus TBK1 heterozygous mice, FIG. 6B): almost no effect
- degree of effect on the number of cells compared with etoposide (naïve CD4SP T cells [1]; cGAMP versus 10 μM etoposide, 48 hours, FIG. 1): acted in a degree similar to etoposide
- number of naïve CD4SP T cells (cell proliferation, OD 450 nm) (naïve CD4SP T cells [1]; wild type mice (STING+/+), cGAMP 3, 10 or 30 μg/mL, anti-CD3/anti-CD28 stimulation, 48 hours, FIG. 1): decreased in a concentration-dependent manner
- apoptosis-inducing effect (naïve CD4SP T cells [2]; etoposide 10 μM): any prominent apoptosis-inducing effect was not found
- cell survival rate (naïve CD4SP T cells [2]): decreased to some extent in a concentration-dependent manner
- expression of Cdk1 [3]: inhibited
- expression of Cdk4 [3]: inhibited
- expression of cyclin A2 [3]: inhibited
- expression of cyclin B1 [3]: inhibited
- expression of cyclin D3 [3]: inhibited
- expression of p21 [3]: increased
- level of phosphorylated 4E-BP1 [4]: decreased
- level of phosphorylated S6K [4]: decreased
- expression levels of lipid synthesis-related genes [5]: decreased
- effect of increasing production of INF-α by cGAMP (type I interferon INF-α; IRF3/IRF7 double deficient mice): almost completely disappeared
- effect of increasing production of INF-α by cGAMP (type I interferon INF-α; IRF3 deficient mice): almost completely disappeared
- increase in production of INF-α by cGAMP (type I interferon INF-α; TBK1-deficient mice (Tbk1−/−) versus Tbk1+/−, FIG. 6A): decreased by TBK1 knockout
- INF-α production in T cells (type I interferon INF-α; anti-CD3/anti-CD28 stimulation 48 hours, ELISA of supernatant, FIG. 6A): prominent increase

SMILES: COc1cc([C@@H]2c3cc4c(cc3[C@@H](O[C@@H]3O[C@@H]5CO[C@@H](C)O[C@H]5[C@H](O)[C@H]3O)[C@H]3COC(=O)[C@H]23)OCO4)cc(OC)c1O [etoposide]
- number of cells (cell proliferation, OD 450 nm) (naïve CD4SP T cells [1]; etoposide 10 μM, STING+/+ and STING−/−, 48 hours, FIG. 1): decreased independent of the STING genotype
